Toxic doses and inconclusive results are not listed. Rule as the data show it: active = T/C of 150% or more; inactive = T/C below 125%.
Test system: L1210 leukemia ip in BDF1 mice, survival T/C
Test: NCI In Vivo Anticancer Drug Screen. Data for tumor model L1210 Leukemia (intraperitoneal) in B6D2F1 (BDF1) mice
Conditions: endpoint: mean survival time, vehicle: Klucel (hydroxypropylcellulose) (HPC), higher = longer survival
How it was run: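 Survival endpoint. Drug-treated group vs vehicle group, expressed as T divided by C. Tumor passaged by transplantation.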

Measured: T/C

CCOC(=O)C(Cc1ccc2ccccc2n1)C(=O)OCC
inactive: dose: 100.0 mg/kg/injection, schedule: Q01DX001 (ip) 100 % of control | dose: 200.0 mg/kg/injection, schedule: Q01DX001 (ip) 106 % of control | dose: 400.0 mg/kg/injection, schedule: Q01DX001 (ip) 100 % of control

CC(=O)c1ccccc1I
inactive: dose: 100.0 mg/kg/injection, schedule: Q01DX009 (ip) 94 % of control | dose: 100.0 mg/kg/injection, schedule: Q04DX003 (ip) 100 % of control | dose: 200.0 mg/kg/injection, schedule: Q01DX009 (ip) 97 % of control | dose: 200.0 mg/kg/injection, schedule: Q04DX003 (ip) 94 % of control | dose: 400.0 mg/kg/injection, schedule: Q01DX009 (ip) 103 % of control | dose: 400.0 mg/kg/injection, schedule: Q04DX003 (ip) 95 % of control

From PubChem BioAssay AID248 (DTP/NCI, 2004)
